# Results reported in patent US11033545B2, “Negative allosteric modulators of MGLUR5 for use in the treatment of mature brain damages” (Sinntaxis AB, priority 2016, dated 2021).
# Legend:
# [1] = tested on: male C57/BL6 mice; test: Paw placement test after photothrombotic stroke in the mouse; type: in vivo
# [2] = tested on: male Sprague Dawley rats; test: Paw placement test after photothrombotic stroke in the rat; type: in vivo
# Procedure: Animals. All experiments were carried out with the approval of the Malmö-Lund animal review board and according to the ARRIVE guidelines. Animals were housed under reverse light conditions, with the testing performed during the dark period when the rats are active. The experiments were carried out on male Sprague Dawley rats (11 weeks of age, Charles River, Scanbur A/S Karlslunde, Denmark). The studies were subjected to randomization and carried out in a blinded fashion to the investigators who performed the surgeries and behavioral assessment.
# Administration of compound. The compound was injected as a bolus dose of 1 ml/kg into the lower quadrant of the abdomen.
# (§1) Experimental stroke. The animals were anesthetized by isoflurane (approximately 2% in 02 under spontaneous ventilation) and placed into stereotaxic frame. Temperature was monitored during surgery using a rectal temperature probe and animals were kept at 37.0-37.5±0.2° C. by means of a heating pad with feedback control. A sagittal skin incision was made and subcutaneous connective tissue was removed and the skull was dried. Thereafter, the photosensitizer dye Rose Bengal (0.5 mL at 10 mg/mL) was infused in the tail vein. Two minutes after injection, the skull was illuminated with cold light (Schott, KL 1500 LCD) on an area of 8 to 4.5 mm for 15 min (from +4 to −4 mm antero-posterior and from 0.5 to 5 mm on the left from bregma). Thereafter the tail and the scalp incisions were sutured and the rats transferred to their home cage. The functional deficit was assessed 2 h after the onset of the stroke using the limb placement test and only the animals having a score 0, for both fore- and hindlimb contralateral to the brain damaged hemisphere were used for the study.
# Test of neurological function. The paw placement test. The cortical damage inflicted by the phothrombosis, causes a deficit due to neuronal loss in the sensori-motor area and depression of functions in neuronal networks in the vicinity of the lesion. […] This test provides information on the tactile/proprioceptive response to limb stimulation. Animals were placed with all 4 paws on the table top, and the paws to be tested along the edge. The rat was moved over the edge so the paws to be tested loose contact with the table surface. The ability of the animals to place the limb back onto the table surface when the rat was moved towards the edge was evaluated. Importantly, the head was held at 45° angle, so that visual and whisker/snout stimulation was prevented. A prompt placement of the limb onto the table was scored as 1. Incomplete placing of the limb was scored as 0.5, and complete extension of the limb and paw was scored as 0. In order to obtain groups with a similar functional deficit prior to treatment of the animals with drugs or vehicle, selective sorting was performed on day 2 after experimental stroke, a time point of recovery when the infarct development had subsided.
# (§2) Administration of the compounds. The compounds were administrated orally (p.o.) by catheters placed in the stomach. The amount of solutions were 0.2 ml/rat and 0.1 ml/mice.
# (§3) Induction of stroke was as made as in Example 1 for rats and as in Example 2 in mice. Assessment of neurological function was performed as in Example 1 for rats and as in Example 2 for mice. The animals were perfused and immunostained as in Example 1, and the infarct size was assessed as in Example 1.
# Induction of stroke, assessment of neurological function, perfusion of animals, immunostaining and assessment of infarct size were made as in Example 1.
# [3] = tested on: male C57/BL6 mice; test: Paw placement test after photothrombotic stroke in the mouse; type: in vivo; conditions: for paw function: continued for 5 days, FIG. 3C
# Procedure: Animals. All experiments were carried out with the approval of the Malmo-Lund animal review board and according to the ARRIVE guidelines. The experiments were carried out on male C57/BL6 mice (8 weeks of age, Charles River Scanbur A/S Karlslunde, Denmark). Studies were subjected to randomization and carried out in a blinded fashion to the investigators who performed the surgeries and behavioral assessment.
# Materials were as in Example 1 and the administration of the drug was made as in Example 1. Also the positive allosteric modulator (PAM) for the mGlur5 receptor was SIN006 (N-Cyclobutyl-6-[2-(3-fluorophenyl)ethynyl]-3-pyridinecarboxamide hydrochloride; VU0360172).
# Induction of stroke in the mouse. Mice were subjected to unilateral photothrombotic (PT) cortical infarct in the left sensori-motor cortex. During surgery, the body temperature of the animals was kept at 37° C. using a self-regulating heating pad. Animals were anesthetized using 1.5-2.5% isoflurane (Sigma) in 100% 02. The skin above the skull was incised; a fiber optic bundle with a 2.5 mm aperture diameter was connected to a cold light source (CL 1500 ECO, Zeiss, Germany) and adjusted to the stereotaxic coordinates of the sensori-motor cortex, 0.5 mm anterior to bregma and 1.5 mm lateral to midline. One intraperitoneal (i.p.) injection of 0.25 ml Rose Bengal (10 mg/ml in 0.9% saline; Sigma-Aldrich, Germany) was given 5 min before the light was turned on for 20 minutes. Care was taken not to exceed 38° C. at the skull surface, underneath the fiber optic bundle. Post surgery, animals were allowed to awake from anesthesia while on a heating pad and returned to the cages with free access to food pellets and water.
# Enriched housing. It is well known that housing of rodents in an enriched environment stimulates the various sensori-motor systems of the brain enhancing recovery after experimental stroke. Enriched housing was accomplished by the following procedure. After selective sorting at day 2 after stroke, mice were randomly distributed into standard (STD, 17 cm×16 cm×34.5 cm) or enriched cages (EE, 30 cm×27 cm×43 cm). Multilevel-enriched cages were equipped with various colored objects such as plastic tunnels, small houses, slides and rodent running wheels; the disposition of the objects was changed every second day. Mice were housed in either standard (2 animals/cage) or enriched cages (6-8 animals/cage) for 12 days. Animals in standard cages were handled similarly except for the housing condition.
# Paw placement test. The mouse was held along its rostro-caudal extension on the edge of a bench and both the unilateral front and hind paws were gently pushed along it. The placement of each paw was recorded when the mouse was moved towards the edge. Sensori-motor dysfunction was assessed by using a score of 1, 0.5, and 0: (1)—the paw is immediately placed on the table surface; (0.5)—the limb is extended, but with some movements and attempts to place the paw on the surface of the table; (0)—the paw is totally immobilized, hanging down, with no movement. In order to obtain groups with a similar functional deficit prior to treatment of the animals with drugs or vehicle, selective sorting was performed on day 2 after experimental stroke, a time point of recovery when the infarct development had subsided.
# as §2, §3
# [4] = tested on: mGluR5 KO rats; test: Paw placement test after stroke in mGluR5 KO rats; type: in vivo, rat; conditions: SIN013 treatment, FIG. 3D
# Procedure: as §1, with “Two minutes after injection, the skull was illuminated with cold light (Schott, KL 1500 LCD) on an area of 8 to 4.5 mm for 15 min (from +4 to −4 mm antero-posterior and from 0.5 to 5 mm on the left from bregma). Thereafter the tail and the scalp incisions were sutured and the rats transferred to their home cage.” left out
# Test of neurological function. […] The ability of the animals to place the limb back onto the table surface when the rat was moved towards the edge was evaluated. […] A prompt placement of the limb onto the table was scored as 1. Incomplete placing of the limb was scored as 0.5, and complete extension of the limb and paw was scored as 0. […]
# Induction of stroke was as made as in Example 1 for rats and as in Example 2 in mice. […] The animals were perfused and immunostained as in Example 1, and the infarct size was assessed as in Example 1.
compound,measurement,setting,value
"Cl.O=C(NC1CCC1)c1ccc(C#Cc2cccc(F)c2)nc1 [SIN006, N-Cyclobutyl-6-[2-(3-fluorophenyl)ethynyl]-3-pyridinecarboxamide hydrochloride]",effect on enhanced recovery of function by enriched environment,"[1]; SIN006 30 mg/kg p.o. concomitant with 5 days enriched housing after stroke, FIG. 2E",completely blocked
same,paw placement score after 5 days of treatment,"[1]; SIN006 30 mg/kg p.o. daily, 1 hour prior to SIN007 5 mg/kg i.p., starting two days after stroke, FIG. 2D",did not recover function
"Fc1ccc2nc(CCC#Cc3ccccn3)cn2c1 [SIN008, 6-Fluoro-2-[4-(pyridin-2-yl)-3-butynyl]imidazo[1,2-a]pyridine]",neurological function (paw placement),"[2]; rat, 30 mg/kg p.o. for 5 days, started 2 days after stroke, vs vehicle, FIG. 3A",significantly improved neurological function
"CN1CC(=O)N=C1NC(=O)Nc1cccc(Cl)c1 [SIN010, 1-(3-chlorophenyl)-3-(3-methyl-5-oxo-4H-imidazol-2-yl)urea]",recovery of function,"[2]; rat, 10 mg/kg p.o. daily for 5 days or 12 days, initiated 2 days after stroke, FIG. 4A",improves recovery function
same,"improvement of function, time dependence","[2]; rat, 10 mg/kg p.o. daily for 12 days, initiated 2 days after stroke, vs vehicle, FIG. 4A",significant after 12 days of treatment
same,"recovery of function, combined with enriched housing","[3]; mice, daily SIN010 plus enriched housing from 2 days after stroke, vs Vh, EE alone or SIN010 alone, FIG. 4B",further improves recovery
"Cc1nc(C#Cc2ccnc(Cl)c2)c(C)n1-c1ccc(OC(F)(F)F)cc1 [SIN013, 2-chloro-4-[2-[2,5-dimethyl-1-[4-(trifluoromethoxy)phenyl]imidazol-4-yl]ethynyl]pyridine]",paw placement function,"[2]; wild type rat, 2 mg/kg/day p.o. for 5 days, initiated 2 days after stroke, vs vehicle, FIG. 3D",significantly improved paw placement function
same,paw function,"[3]; mouse, 2 mg/kg daily, started 2 days after stroke, p<0.05","enhancement of function, which was significant"
same,paw function,"[3]; mouse, 2 mg/kg every 48 h, started 2 days after stroke",enhancement of function
same,recovery of paw placement function,[4],recovery stimulated by SIN013 treatment was not seen
Cc1nc(C#Cc2ccnc(Cl)c2)c(C)n1-c1ccc(F)cc1 [SIN014],functional recovery,"[3]; mouse, 10 mg/kg p.o. for 5 days (higher dose; lower dose 5 mg/kg p.o.), FIG. 3E",improved functional recovery at the higher dose
"COC(=O)N1CC[C@@H]2[C@H]1CCC[C@@]2(O)C#Cc1cccc(C)c1 [SIN 011, (3aR,4S,7aR)-Octahydro-4-hydroxy-4 [2-(3-methylphenyl)ethynyl]-1H-indole-1-carboxylic acid methyl ester]",paw placement function,"[3]; mouse, 30 mg/kg p.o. daily for 5 days, started 2 days after stroke, vs vehicle, p<0.01, FIG. 3B",significant recovery of paw function
"N#Cc1cc(F)cc(-c2nc(-c3ccc(F)cn3)no2)c1 [SIN 015, 3-fluoro-5-(3-(5-fluoropyridin-2-yl)-1,2,4-oxadiazol5-yl)benzonitrile]",recovery of function,"[2]; rat, 3 mg/kg for 5 days starting 2 days after stroke, FIG. 4C",improved recovery of function
